Tests used:
[1] = Spontaneous (uncatalyzed, background) hydrolysis; type: physicochemical; parameters: key to Spon. (spontaneous hydrolysis), symbol: --: No hydrolysis observed; details: for Spon. (spontaneous hydrolysis), symbol: pH 8.0
Description: The practical range of pH for the assay is limited by the rapid spontaneous rate of hydrolysis of an ester Compound 5 above pH 8.0. Initially, the ester was used at a concentration that was about four-fold greater than that of the protein, and the mixture was incubated at pH 7.2 for 10 minutes. Any change in fluorescence above background was noted.
The lack of spectroscopic distinction between such esters and their hydrolysis products recommended a chromatographic analysis of the process. Referring to FIG. 3, a mixture of Compound 7 (5 uM) and the monoclonal antibody from hybridoma P3 6D4 (0.1 uM) in phosphate buffer (50 mM, pH 8.0) was analyzed over time by high performance liquid chromatography (HPLC). The accelerated hydrolysis of the ester was apparent from the decrease of its peak and the concurrent increase in two new peaks that correspond with the expected products. Under these conditions, the ester is completely consumed in 60-80 minutes during which time the background rate accounts for about 12 to 16 percent hydrolysis. The chromatographic profile is the same as that produced by treatment with hog liver esterase.
^c The rate constants were determined spectrophotometrically (at 245
nm) by measuring initial rates at five concentrations of ester.
(§1) ^1 Preliminary initial hydrolyses shown as the percentage of admixed
(§2) reactant ligand consumed for catalyzed and spontaneous hydrolyses. "--" =
(§3) No hydrolysis observed. "NT" = Not tried. All reactions were carried out
(§4) at pH 8.0 in a 50 mM phosphate buffer unless otherwise noted. Hydrolytic
(§5) percentages were determined by HPLC using a Hitachi model 655A12 liquid
(§6) chromatograph with a C18 Vydac 201TP54 column, except as noted below.
(§7) Mixtures of acetonitrile a nd water containing 0.1 percent trichloroaceti
(§8) acid [28:72-50:50 (v/v)] were used as elutant. Hydrolyses of Compounds 5
(§9) and 20 were assayed using fluorescence data.
(§10) ^5 Spontaneous hydrolytic percentages for the time period indicated.
Reaction kinetics were studied using three reactant ligands as substrates for monoclonal receptors 37G2 and 22F5. Data from initial rates were consistent with Michaelis-Menten reaction mechanism for a usual enzyme-substrate system. Initial rates were followed using at 271 nm using a U.V.-visible spectorphotometer for Compound 17, and a fluorescence spectrometer for Compounds 5 and 20, using an excitation wavelength of 355 nm and an emission wavelength of 455 nm for both compounds.

[2] = system: 21G2; experiment: Hydrolysis of reactant ligands by receptor 21G2; type: biochemical, mouse; parameters: key to hydrolysis by 21G2, symbol: --: No hydrolysis observed; details: pH 8.0; for hydrolysis by 21G2, symbol: 19: 2/5 uM, 21: 5/10 uM receptor/ligand
Description: as §1, §2, §3, §4, §5, §6, §7, §8, §9
(§11) ^2 Concentrations of receptor molecules (Rec.) and reactant ligands
(§12) (Lig.) in micromolar units, presuming a molecular weight of 150,000
(§13) daltons for each receptor molecule.
(§14) ^3 Reactant ligand (Lig.) used as substrate.
(§15) ^4 Time in hours that the reaction was permitted to take place.
as §10
(§16) ^6 Reaction carried out at pH 7.2 in a 50 mM phosphate buffer.

[3] = system: 7E5; experiment: Hydrolysis of reactant ligands by receptor 7E5; type: biochemical, mouse; parameters: key to hydrolysis by 7E5, symbol: --: No hydrolysis observed; details: pH 8.0; for hydrolysis by 7E5, symbol: 19: 2/5 uM, 21: 5/10 uM receptor/ligand
Description: as §1, §2, §3, §4, §5, §6, §7, §8, §9, §11, §12, §13, §14, §15, §10, §16

[4] = system: 37G2; experiment: Hydrolysis of reactant ligands by receptor 37G2; type: biochemical, mouse; parameters: key to hydrolysis by 37G2, symbol: --: No hydrolysis observed; details: pH 8.0; for hydrolysis by 37G2, symbol: 19: 2/5 uM, 21: 5/10 uM receptor/ligand
Description: as §1, §2, §3, §4, §5, §6, §7, §8, §9, §11, §12, §13, §14, §15, §10, §16

[5] = system: 13E10; experiment: Hydrolysis of reactant ligands by receptor 13E10; type: biochemical, mouse; parameters: key to hydrolysis by 13E10, symbol: --: No hydrolysis observed; details: pH 8.0; for hydrolysis by 13E10, symbol: 19: 2/5 uM, 21: 5/10 uM receptor/ligand
Description: as §1, §2, §3, §4, §5, §6, §7, §8, §9, §11, §12, §13, §14, §15, §10, §16

[6] = system: 1209; experiment: Hydrolysis of reactant ligands by receptor 12C9 (column head prints 1209); type: biochemical, mouse; parameters: key to hydrolysis by 1209, symbol: --: No hydrolysis observed; details: pH 8.0; for hydrolysis by 1209, symbol: 19: 2/5 uM, 21: 5/10 uM receptor/ligand
Description: as §1, §2, §3, §4, §5, §6, §7, §8, §9, §11, §12, §13, §14, §15, §10, §16

[7] = system: 44A2; experiment: Hydrolysis of reactant ligands by receptor 44A2; type: biochemical, mouse; parameters: key to hydrolysis by 44A2, symbol: --: No hydrolysis observed; details: pH 8.0; for hydrolysis by 44A2, symbol: 19: 2/5 uM, 21: 5/10 uM receptor/ligand
Description: as §1, §2, §3, §4, §5, §6, §7, §8, §9, §11, §12, §13, §14, §15, §10, §16

[8] = system: 17G8; experiment: Hydrolysis of reactant ligands by receptor 17G8; type: biochemical, mouse; parameters: key to hydrolysis by 17G8, symbol: --: No hydrolysis observed; details: pH 8.0; for hydrolysis by 17G8, symbol: 19: 2/5 uM, 21: 5/10 uM receptor/ligand
Description: as §1, §2, §3, §4, §5, §6, §7, §8, §9, §11, §12, §13, §14, §15, §10, §16

[9] = system: 22F5; experiment: Hydrolysis of reactant ligands by receptor 22F5; type: biochemical, mouse; parameters: key to hydrolysis by 22F5, symbol: --: No hydrolysis observed; details: pH 8.0; for hydrolysis by 22F5, symbol: 19: 2/5 uM, 21: 5/10 uM receptor/ligand
Description: as §1, §2, §3, §4, §5, §6, §7, §8, §9, §11, §12, §13, §14, §15, §10, §16

[10] = system: eight monoclonal receptors 21G2, 7E5, 37G2, 13E10, 12C9, 44A2, 17G8 and 22F5; experiment: Catalyzed hydrolysis of reactant ligands by the eight QPN1 monoclonal receptors, summary; type: biochemical, mouse; details: pH 8.0
Description: Mice were hyperimmunized with the Compound 13-KLH conjugate over a three to four week time period. Sera were assayed in an ELISA using a Compound 13-BSA conjugate bound to microtiter plate wells as the solid-phase antigen. Cloned hybridomas were also screened using that ELISA assay.
Each of those catalyses could be inhibited by an appropriate analog-ligand. Thus, a relatively high percentage of induced monoclonal receptors was capable of catalyzing an esterolytic reaction. The reason for this relatively high percentage of useful receptors being induced is unknown, but could be due to the presence of phosphonamidate group nitrogen atom, as compared to a phosphonate oxygen atom, or to the quinoline nucleus of the analog-ligand. Those eight catalytic monoclonal receptors and the hybridomas that secrete them are identified by the laboratory designations "QPN1 7E5", "QPN1 12C9", "QPN1 13E10", "QPN1 17G8", "QPN1 21G2", "QPN1 22F5", "QPN1 37G2" and QPN1 44A2. The prefix "QPNI" is sometimes omitted herein when discussing these hybridomas and receptors.
Amide cleavage for Compounds 14 and 15 was assayed by analyzing for the production of free aminoquinaldine or aminonaphthalene by measuring the increase in the azo dye that results from derivatizing the free aminoquinaldine or aminonapthalene with a diazotization reagent.
Catalysis reactions were conducted by preparing a reaction admixture of 100 microliters (ul) total volume containing 5 micromolar (uM) monoclonal antibody, 50-75 uM amide reactant ligand substrate and a buffer described hereinafter. The buffer included in the above admixture varied depending upon the pH utilized as follows: pH 5, 10 […] sodium acetate, 10 mM sodium chloride; pH 7.2, 10 mM sodium phosphate, 0.15 molar (M) sodium chloride; pH 8.0; 50 mM sodium phosphate. The amide-containing substrates screened in this assay were added to the above admixture in 1 ul of a 100-fold concentrated stock solution of dimethyl formamide (DMF). Monoclonal antibody was added to the above admixture from a concentrated stock solution. The resulting admixture was placed into the well of a 96 well flat bottom microtiter plate (Costar, Cambridge, Mass.) and maintained in a moist vapor environment chamber at 23 degrees C. The production of aminoquinaldine or aminonaphthalene was then assayed as described below after 2,3,5, or 6 days.
The aminoquinaldine or aminonapthalene product produced by the catalyzed reaction was measured by first admixing 20 ul of 5M HCl, 80 ul acetone and 10 ul 0.5% (w/v) sodium nitrite to the reaction admixture to form a second admixture and maintaining that second admixture for 3 minutes at room temperature. Thereafter, 10 ul 2.5% (w/v) ammonium sulfamate was added to form a third admixture that was maintained for 2 minutes at room temperature. A still further 10 ul of 0.5% (w/v) N-(1-napthyl)ethylenediamine dihydrochloride was added to form a fourth admixture that was then maintained for 15 minutes at room temperature. Thereafter the resulting azo dye present in the fourth admixture was measured by absorbance spectroscopy at 540 nanometers (nm) for aminoquinaldine using a Model EL 309 Automated Microplate Reader (Bio-Tek Instruments, Winooski, Vt.).

[11] = receptor/ligand uM, time h: 17 1/10, 2, 18 2/10, 24, 20 2/10, 0.33, 5 1/5, 0.33, 22 5/10, 3.5, preliminary

| Structure (SMILES) | Spon. (spontaneous hydrolysis), symbol [1] | hydrolysis by 21G2, symbol [2] | hydrolysis by 7E5, symbol [3] | hydrolysis by 37G2, symbol [4] | hydrolysis by 13E10, symbol [5] | hydrolysis by 1209, symbol [6] | hydrolysis by 44A2, symbol [7] | hydrolysis by 17G8, symbol [8] | hydrolysis by 22F5, symbol [9] | receptors (of eight) that catalyzed hydrolysis of the compound [10] | Spon. (spontaneous hydrolysis) ([1]; pH 8.0, 50 mM phosphate, time (h): 17 2, 18 24, 20 0.33, 5 0.33, 22 3.5) | hydrolysis by 21G2 [2, 11] | hydrolysis by 7E5 [3, 11] | hydrolysis by 37G2 [4, 11] | hydrolysis by 13E10 [5, 11] | hydrolysis by 1209 [6, 11] | hydrolysis by 44A2 [7, 11] | hydrolysis by 17G8 ([8]; receptor/ligand uM, time h: 18 2/10, 24, 20 2/10, 0.33, 5 1/5, 0.33, 22 5/10, 3.5, preliminary) | hydrolysis by 22F5 [9, 11] |
| --- | --- | --- | --- | --- | --- | --- | --- | --- | --- | --- | --- | --- | --- | --- | --- | --- | --- | --- | --- |
| CC(=O)Nc1ccc(CC(=O)Nc2cccc3ccccc23)cc1 [Compound 15] | -- | -- | -- | -- | -- | -- | -- | -- | -- | none of the receptors catalyzed hydrolysis |  |  |  |  |  |  |  |  |  |
| CC(=O)Nc1ccc(CC(=O)Oc2cccc3ccc(C)nc23)cc1 [Compound 16] | -- | -- | -- | -- | -- | -- | -- | -- | -- | failed to react |  |  |  |  |  |  |  |  |  |
| CC(=O)Oc1cccc2ccccc12 [Compound 18] |  |  |  |  |  |  |  |  |  | all of the receptors except 12C9 catalyzed the hydrolysis | 34 percentage of reactant ligand | 72 percentage of reactant ligand | 76 percentage of reactant ligand | 92 percentage of reactant ligand | 69 percentage of reactant ligand | 56 percentage of reactant ligand | 84 percentage of reactant ligand | 84 percentage of reactant ligand | 100 percentage of reactant ligand |

From patent publication US5126258A (priority 1988, dated 1992)
